Where no end group is shown, it is not given here.
Test system: hMSCs
Assay: Loss of stemness: STRO-1 expression by immunostaining
Assay type: cell-based, human
Description: The cells were first fixed for 20 min with 4% paraformaldehyde/PBS at 4° C. After fixation, the cells were permeabilized in PBS containing 1% Triton X-100 for 15 min. Runx2, Osterix, Stro-1, Vinculin, Phalloidin, Osteopontin, Sox2, Sox9 antibodies were visualized by treating the cells with 1% (v/v) specific monoclonal antibodies for 1 hour at 37° C. Then the samples were incubated with Alexa Fluor® 568 or 647 (F(ab′)2 fragment of IgG(H+L)) during 30 min at room temperature. The cell nuclei were counterstained in 20 ng/mL DAPI for 10 min at room temperature.
For this type of quantification the freeware image analysis ImageJ® software was used. The raw image was first converted to an 8-bit file, and then the unsharp mask feature was used (settings 1:0.2) to remove the image background (rolling ball radius 10). After smoothing, the resulting image, which appears similar to the original photomicrograph but with minimal background, was then converted to a binary image by setting a threshold. Threshold values were determined empirically by selecting a setting, which gave the most accurate binary image for a subset of randomly selected photomicrographs. The cell area was determined by manual delineation on raw fluorescent images. Total contact area and mean contact area per cell were calculated by “analyse particules” in ImageJ®. A minimum of 30 cells per condition were analyzed. Stro-1, CD-34+, and CD-105 expressions were determined using this procedure.
hMSCs were cultured on conventional cell culture plastic plates with or without the presence in the cell culture media of different GFR-binding compounds as described herein (SEQ ID NO: 50 to 88) in solution. […] This was probed by Stro-1 immunostaining after cell fixation as described in the Methods section. The quantification of Stro-1 positive contact numbers and areas was performed as described in the Methods section. A minimum of 30 cells per condition were analyzed. Stro-1 positive marrow cells are multipotential and capable of differentiating into multiple mesenchymal lineages including stromal cells with a phenotype resembling vascular smooth muscle cells that can support hematopoiesis, adipocytes, osteoblasts, and chondrocytes.
Using the method detailed in the description, the RMSD of 57 previously reported peptide sequences have been determined (Table 6) and correlated with the expression of STRO-1 in solution. […] One should note that it is commonly admitted that the expression of STRO-1 in a cell is indicative of a cell that is in a substantially non-differentiated state and the decrease of its expression of at least about 20% is indicative of a cell that has started a process of differentiation but which may not result in the differentiation of the cell. A decrease of more than 50% would be indicative of the presence of a significant shift towards a differentiated state. A decrease of more than 70% would be indicative of the presence of a very important shift towards a differentiated state. A sustained decrease (e.g. for at least 96 h) of more than 50% or 70% would be indicative of the presence of an even more important shift towards a differentiated state.
Likewise, using the method detailed in the description, the RMSD of 75 GFR-binding peptide sequence representatives of the invention have been determined (Table 8) and correlated with the expression of STRO-1. SEQ ID NO: 1 to 49 were tested in combination with a bioactive carrier as defined above in the Examples Section (i.e. titanium, ceramics, collagen, etc. . . . ), whereas SEQ ID NO: 2242 to 2267 were tested in solution.

[1] = Table 8, SEQ ID NO: 2242 to 2267 tested in solution
[2] = Table 6, previously reported peptides in solution, 400 ng/mL
[3] = Table 8, SEQ ID NO: 1 to 49 tested in combination with a bioactive carrier (titanium, ceramics, collagen, etc.)

| Substance | STRO-1 expression (%) [2] | STRO-1 expression (%) [3] | other results |
| --- | --- | --- | --- |
| 2262 (HVTKPTSVPTKLSPISILFIDDSSNVIYKQYENMVVESSGSH; GFR-binding peptide) [compound 2262] |  |  | STRO-1 expression (%) [1]: 18% |
| 2168 (MSRVLFEPLTFLQTGSGLPDEKTLG; Peptide reported in US20080081768, SEQ ID NO:28800) [compound 2168] | 94% |  |  |
| 2261 (NDEGLESVPTGQSPISILYIRIKPHQGQHYKQYELEEHSQSESR; GFR-binding peptide) [compound 2261] |  |  | STRO-1 expression (%) [1]: 17% |
| 23 (GTPGPKVPKPSSAPTQLSAISTLYLDEYDKVVLKNYQNMAVR; not fully specified; ends and bridges not checked) [compound 23] |  | 17% |  |
| 2201 (KIPKPSSAPTELSAISMC; Peptide reported in WO2009151288, SEQ ID NO:7) [compound 2201] | 78% |  |  |
| 28 (GTPGPAPTKLSAISMLYLDSSNNVILKKYR; GFR-binding peptide) [compound 28] |  | 19% |  |
| 2243 (VPEAASSLSMLFFEIVRKKPIFLKVYPAATVE; GFR-binding peptide) [compound 2243] |  |  | STRO-1 expression (%) [1]: 19% |
| 2245 (APTLLNAISMLYFNDKQQIILKKYRLLVVR; GFR-binding peptide) [compound 2245] |  |  | STRO-1 expression (%) [1]: 22% |
| 2169 (IKSPARHSAPTHQEPLP; Peptide reported in WO2013040142, SEQ ID NO:3157977) [compound 2169] | 98% |  |  |
| 2175 (VGAAWWLREQGSPINTLAVPA; Peptide reported in WO2013040142, SEQ ID NO:133294) [compound 2175] | 88% |  |  |
| 2252 (VPQAAEPLPMLYYDKGVVTYEQLSNAAVRS; GFR-binding peptide) [compound 2252] |  |  | STRO-1 expression (%) [1]: 19% |
| 43 (CAAPASSSVPARLSPISILYIDAANNVVYKQYEDMVVEASG; not fully specified; ends and bridges not checked) [compound 43] |  | 27% |  |
| 2182 (VPTELSPISLLYLDEFEKVTLKNYQDMVVDG; Peptide reported in US20120244575, SEQ ID NO:4324) [compound 2182] | 87% |  |  |
| 2192 (SFRTARANAPTGRSSLSGEKEQQEASTHS; Peptide reported in WO2013040142, SEQ ID NO:3136558) [compound 2192] | 91% |  |  |
| 2260 (VPQRLEPLTILYYDAANNVVEQLSNDMVKS; GFR-binding peptide) [compound 2260] |  |  | STRO-1 expression (%) [1]: 23% |
| 2166 (NEVLRFCGIQVPEGDEPLT; Peptide reported in WO2013040142, SEQ ID NO:101213) [compound 2166] | 98% |  |  |
| 2185 (LGIAAIIFLQQVPAAFSATSPPG; Peptide reported in WO2013040142, SEQ ID NO:1139935) [compound 2185] | 97% |  |  |
| 2207 (CKIPKPSSAPTELSAISMLYL; Peptide reported in WO2009151288, SEQ ID NO:1) [compound 2207] | 78% |  |  |
| 2174 (CVTKPLSSLLFPNWNTTTTPTPP; Peptide reported in WO2013040142, SEQ ID NO:642255) [compound 2174] | 92% |  |  |
| 14 (CAPTKLSAISMLYLDSSNNVILKNYQ; GFR-binding peptide) [compound 14] |  | 16% |  |
| 41 (CGIPEPSSVPEKMSSLSILFFDENKNVVLKVYPNM; not fully specified; ends and bridges not checked) [compound 41] |  | 22% |  |

| Substance | STRO-1 expression (%) [2] | STRO-1 expression (%) [3] | other results |
| --- | --- | --- | --- |
| 8 (CAPTQLSPISVLYKDDSSNVILKYHYTLEDH; GFR-binding peptide) [compound 8] |  | 19% |  |
| 2178 (SPISILVVPELDASLPEKRPSLDGFEALLVYNAPKA; Peptide reported in US20120246748, SEQ ID NO:119912) [compound 2178] | 82% |  |  |
| 2194 (KGSEYEKLVVSGITQVYQSSLSWHGCKSCCEVQVXNLXILIRLYDVHYYN; Peptide reported in US20040172684, SEQ ID NO:47782; MOD_RES (35), (38): Xaa is A) [compound 2194] | 88% |  |  |
| 18 (CKVGKASSVPTKLNAISTLYLDENEKVVLKKYREGMS; not fully specified; ends and bridges not checked) [compound 18] |  | 19% |  |
| 2196 (MAAQDEWRDAITLTMGRDLKKVPQHLNAISVIDPVT; Peptide reported in US20120246748, SEQ ID NO:111359) [compound 2196] | 83% |  |  |
| 47 (CAAAPASXXVPARLSPISILYIAAAYKQYEDM; GFR-binding peptide; MOD_RES (8), (9): Xaa is C or S) [compound 47] |  | 18% |  |
| 2161 (DPLPIIYYVGRNVRVEQLSNMVVRACKCS; Comparative sequence) [compound 2161] | 97% |  |  |
| 26 (GTPGPASSAVSQELSAISMLYLGGGLKNYQDM; GFR-binding peptide) [compound 26] |  | 22% |  |
| 2214 (KPCCAPTELSAISVLYFDDSSNVILKKYRNMVVRACGCR; Peptide reported in US20050250936, SEQ ID NO:122) [compound 2214] | 83% |  |  |
| 2172 (PNYSVPAGNKPLSERE; Peptide reported in WO2013040142, SEQ ID NO:543064) [compound 2172] | 95% |  |  |
| 49 (CTVPKPXXAPTQLSPISILYIDAANNVVYKQYEDMVVRA; GFR-binding peptide; MOD_RES (7), (8): Xaa is C or S) [compound 49] |  | 18% |  |
| 2210 (SRVLPIVVQGYVPVQDTKFLGIYYVIGPIIARVILSSSSAISSLNKS; Peptide reported in US20040031072, SEQ ID NO:188005) [compound 2210] | 84% |  |  |
| 2208 (AETLHTLGLSAPVIESAISDAI; Peptide reported in WO2013040142, SEQ ID NO:629725) [compound 2208] | 93% |  |  |
| 1 (CKVPKPSSAPTQLSAISTLYLDEYDKVVLKNYQNMVVRA; not fully specified; ends and bridges not checked) [compound 1] |  | 26% |  |
| 33 (WWFWGASSAVSQELSAISMLYLGGGLKNYQDMQHN; GFR-binding peptide) [compound 33] |  | 28% |  |
| 6 (CAVPKAXXAPTKLSATSVLYYDSSNNVVLRKHRNMVVK; GFR-binding peptide; MOD_RES (7), (8): Xaa is C or S) [compound 6] |  | 26% |  |
| 2190 (VHLLKPHAVPKACCAPTKLSATSVLYYDSSNNVILRKHRNMVVRACGCH; Peptide reported in US5688678, SEQ ID NO:8) [compound 2190] | 88% |  |  |
| 2199 (APTQLSAISVL; Peptide reported in US20050250936, SEQ ID NO:71) [compound 2199] | 93% |  |  |
| 2244 (VPTVVSAISTLYLRIKPHQGQHLKNYQVVVVE; GFR-binding peptide) [compound 2244] |  |  | STRO-1 expression (%) [1]: 21% |
| 29 (GTPGPKASSVPTELSPISTLYKDENEKVVLKYHYDMVVEGSGSR; not fully specified; ends and bridges not checked) [compound 29] |  | 21% |  |

From patent publication US20220267394A1, “COMPOUNDS FOR INDUCING TISSUE FORMATION AND USES THEREOF” (HISTIDE AG, priority 2015, published 2022)
